In brackets after ≈: the same amount, converted by molar mass. Several values for one entry are separate records, joined by “and”; a condition that tells them apart may be missing. Equal values may be shown once. Read-outs that look alike come from different tables or passages of the source.
Key:
[1] = test system: erythrocytic-stage P. falciparum 3D7 parasites; parameters: method as in PMID 33053158; details: read-out: EC50, growth of erythrocytic-stage P. falciparum 3D7; cited from earlier work
PfLysRS [2] = target: T1, PfLysRS (Plasmodium falciparum, UniProt Q8IDJ8); assay: ATP hydrolysis assay (Kinase-Glo) on PfLysRS; format: biochemical; details: for IC50: read-out: IC50 against PfLysRS
T1 construct: PfLysRS (77–583) was constructed in the vector pET20b, with a C-terminal 6×His tag; 6xHis (C); made in house; host or cells: E. coli BL21 (DE3)
Description: (§1) The ATP hydrolysis assays were based on Kinase-Glo luminescent Kit (Promega). The experiment was carried out in Corning 384-well white flat bottom microplates. The buffer in the reaction contains 25 mM Hepes pH 7.4, 140 mM NaCl, 40 mM MgCl2, 30 mM KCl, 1 mM TCEP, 0.1 mg·mL^−1 BSA, and 0.004% Tween-20. The compounds were diluted to different concentrations with a 5-fold gradient.
(§2) For LysRS assays, DMSO was added into negative control wells and L-lysine was removed in positive control wells. 100 nM LysRS in 2.5 μL Hepes buffer was mixed with compounds and incubated for 10 min. Then 5 μL substrate mixture (2 μM ATP, 10 μM L-lysine and 31 nM pyrophosphatase) was added to start the reaction at 37 °C and incubated for 6 h.
(§3) When the reaction reaches the planned time, 10 μL diluted Kinase-Glo reagent (1/50 diluted with a buffer containing 50 mM Tris pH 7.5 and 5% glycerol) was added and incubated for 15 min. Luminescence was measured on the Magellan plate reader (Tecan) and nonlinear regression was performed with Prism (GraphPad).

PfLysRS [3] = target: T1, PfLysRS; details: cited from earlier work
PfLysRS [4] = target: T1, PfLysRS; assay: Thermal shift assay; format: binding
Description: PfLysRS protein was prepared at 10 μM concentration in a buffer containing 20 mM Tris pH 8.0, 200 mM NaCl, 500 μM L-lysine, and 200 μM Compound. Aliquots (18 µL) were added to a 96-well PCR plate and incubated at ambient temperature for 10 min. SYPRO Orange dye (Sigma) was diluted in the assay buffer containing 20 mM Tris pH 8.0 and 200 mM NaCl to a 40× concentration, and 2 µL of the 40× dye solution was added to the PCR plate to bring the final assay volume to 20 µL. After complete mixing, the final solutions were heated from 25 to 90 °C at a rate of 0.015 °C per sec, and fluorescence signals were monitored by QuantStudio 3 (Applied Biosystems by Thermo Fisher Scientific).

ALK = target: T2, ALK (Homo sapiens, UniProt Q9UM73); assay: ATP hydrolysis assay (Kinase-Glo) on ALK; format: biochemical; details: read-out: IC50 against ALK
T2 construct: The plasmid pCDNA3.1_8×His-tev-ALK (kinase domain, 1068–1410) was constructed; 8xHis (N); TEV site (N); made in house; host or cells: Expi293 cells (transient transfection)
Description: as §1
For ALK assays, DMSO was added into negative control wells. 100 nM ALK in 2.5 μL Hepes buffer was mixed with compounds and incubated for 10 min. Then 5 μL substrate (2 μM ATP) was added to start the reaction at 37 °C and incubated for 6 h.
as §3

[5] = Solubility noted in the cytotoxicity assay; format: physicochemical; details: highest concentration limited to 100 μM in cell medium
Description: Cell viability was analyzed by Cell Counting Kit-8 (CCK8, ApexBio) according to the manufacturer’s protocols. Cells were seeded and cultured at a density of 2.5 × 10^3 cells per well in 100 μL medium in 96-well microplates (Corning). Then, the cells were treated with different concentrations of compound (0, 1 μM, 3 μM, 10 μM, 100 μM, 300 μM). […] After treatment for 72 h, 10 μL of CCK-8 reagent was added to each well and then cultured for 4 h. All experiments were performed in pentaplicate. The absorbance was analyzed at 450 nm using a microplate reader (Tecan) using medium without cells as blanks. Data was processed using GraphPad Prism 9.

HsLysRS = target: T3, HsLysRS (Homo sapiens, UniProt Q15046); assay: ATP hydrolysis assay (Kinase-Glo) on HsLysRS; format: biochemical
T3 construct: HsLysRS (70–581) was constructed in the vector pET20b with a C-terminal 6×His tag; 6xHis (C); made in house; host or cells: E. coli (pET20b; 'purified similarly' to PfLysRS, which was expressed in BL21 (DE3))
Description: as §1, §2, §3

PfLysRS [6] = target: T1, PfLysRS; assay: Surface plasmon resonance (SPR) assay; format: binding; details: immobilized PfLysRS
Description: PfLysRS was chemically immobilized on a Biacore CM5 sensorchip (immobilization level ~20000 resonance unit/RU) at pH 5.0 according to the immobilization kit (GE Healthcare). PfLysRS (1.7 nM) was captured for 90 s at a flow of 30 µL·min^−1. Affnity between PfLysRS and compounds was measured by SPR on a Biacore 8 K (GE Healthcare) at 25 °C with a running buffer (0.02 M phosphate buffer pH 7.4, 2.7 mM KCl, 0.137 M NaCl, 0.05% Tween 20, with 1 mM L-lysine). The association time was 90 s, the dissociation time was 120 s, and the flowrate was 30 µL·min^−1. Kinetic evaluation of the interaction between LysRS and compounds was performed by global fitting of the data to a 1:1 interaction model using Biacore Evaluation Software 3.1 (GE Healthcare).

P. falciparum ProRS = details: sentence of the first manuscript quoted in the peer review file; read-out: dissociation constant (KD); cited from earlier work
Staphylococcus aureus = test system: Staphylococcus aureus; parameters: method as in PMID 6258580, PMID 659331, PMID 3923922; details: cited from earlier work
[7] = +Lysine, sheet Figure 6B, in °C (unit assumed)

T1 sequence (Q8IDJ8 entry or part of it): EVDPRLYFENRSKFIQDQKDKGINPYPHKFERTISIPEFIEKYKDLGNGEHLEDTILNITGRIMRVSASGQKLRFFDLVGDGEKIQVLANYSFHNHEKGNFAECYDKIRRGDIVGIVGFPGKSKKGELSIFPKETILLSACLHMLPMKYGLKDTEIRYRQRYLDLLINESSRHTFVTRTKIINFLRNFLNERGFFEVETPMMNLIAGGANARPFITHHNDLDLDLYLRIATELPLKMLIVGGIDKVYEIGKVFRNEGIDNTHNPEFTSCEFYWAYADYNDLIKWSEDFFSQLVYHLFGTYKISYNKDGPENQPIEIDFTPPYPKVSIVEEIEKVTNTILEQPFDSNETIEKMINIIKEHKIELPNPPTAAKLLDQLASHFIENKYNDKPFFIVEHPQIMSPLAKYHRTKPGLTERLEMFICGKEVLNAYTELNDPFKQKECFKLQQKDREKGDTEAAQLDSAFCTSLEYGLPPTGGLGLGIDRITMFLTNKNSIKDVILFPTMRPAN
T3 sequence (Q15046 70-581): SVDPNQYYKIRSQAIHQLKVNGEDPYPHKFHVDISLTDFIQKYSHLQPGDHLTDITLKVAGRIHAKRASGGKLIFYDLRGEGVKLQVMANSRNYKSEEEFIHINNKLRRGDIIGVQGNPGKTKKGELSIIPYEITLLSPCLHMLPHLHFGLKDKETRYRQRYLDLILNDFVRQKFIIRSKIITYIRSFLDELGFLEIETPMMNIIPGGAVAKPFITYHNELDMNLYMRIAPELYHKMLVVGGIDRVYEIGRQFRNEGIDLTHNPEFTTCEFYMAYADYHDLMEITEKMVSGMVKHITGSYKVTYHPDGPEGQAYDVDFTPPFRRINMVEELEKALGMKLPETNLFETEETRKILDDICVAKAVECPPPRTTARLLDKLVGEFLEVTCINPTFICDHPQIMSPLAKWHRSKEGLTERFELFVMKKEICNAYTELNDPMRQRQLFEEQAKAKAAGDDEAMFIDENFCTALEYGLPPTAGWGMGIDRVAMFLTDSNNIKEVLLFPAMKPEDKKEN
T2 sequence (Q9UM73 1068-1410): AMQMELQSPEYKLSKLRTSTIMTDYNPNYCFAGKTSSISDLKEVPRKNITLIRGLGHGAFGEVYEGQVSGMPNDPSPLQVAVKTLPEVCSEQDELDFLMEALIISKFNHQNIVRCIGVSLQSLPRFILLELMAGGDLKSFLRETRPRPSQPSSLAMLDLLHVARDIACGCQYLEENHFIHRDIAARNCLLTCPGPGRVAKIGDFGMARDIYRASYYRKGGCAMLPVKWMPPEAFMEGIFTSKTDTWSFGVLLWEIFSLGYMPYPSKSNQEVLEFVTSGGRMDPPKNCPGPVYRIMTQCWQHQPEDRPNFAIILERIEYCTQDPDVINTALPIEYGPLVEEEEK

COc1cc(N2CCC(N3CCN(C)CC3)CC2)ccc1Nc1ncnc(Nc2ccccc2S(=O)(=O)C(C)C)n1 [ASP3026, N-{2-Methoxy-4-[4-(4-methylpiperazin-1-yl)piperidin-1-yl]phenyl}-N’-[2-(propane-2-sulfonyl)phenyl]-1,3,5-triazine-2,4-diamine]
EC50 [1]: 5610 nM | IC50 (PfLysRS [2]): 967 ± 170 nM | IC50 (PfLysRS [3]; another kit, different buffer system, ref nucleic acid research paper, read-out: previously reported IC50 against PfLysRS): 657 ± 195 nM | inhibitory effect on human ALK stronger than on PfLysRS (PfLysRS [3]; ref original Nucleic Acid Research paper): about 200 times

COc1ccc(OC)c(Nc2ncnc(Nc3ccccc3S(=O)(=O)CCCNC(=O)[C@@H](N)CCCCN)n2)c1 [Compound 36K3]
△Tm of PfLysRS (PfLysRS [4]; +Lysine, sheet Figure 6B): 12.798 | Tm of PfLysRS, Average (PfLysRS [4]; [7]): 57.818 | Tm of PfLysRS, single repeat (PfLysRS [4]; [7]): 57.710 and 57.895 and 57.833 | ΔTm at 200 µM (PfLysRS [4]; in the presence of L-lysine): 12.8 °C | IC50 (ALK): > 74400 nM | solubility [5]: poor solubility | HillSlope (best-fit value) (PfLysRS [2]; PfLysRS): 1.065 | LogIC50 (best-fit value) (PfLysRS [2]; PfLysRS, log of nM): 1.772 | IC50 (PfLysRS [2]): 59.2 nM | apparent selectivity index for HsLysRS (HsLysRS; PfLysRS vs HsLysRS): 200 | IC50 (HsLysRS; read-out: IC50 against HsLysRS): 12000 nM | koff (PfLysRS [6]): 0.0113 s⁻¹ | kon (PfLysRS [6]): 911000 M/s | Kd (PfLysRS [6]; 1 mM L-lysine in running buffer, read-out: dissociation constant (KD)): 12.4 nM

O=C(CC1NCCCC1O)Cn1cnc2cc(Br)c(Cl)cc2c1=O (centres unmarked) [Halofuginone]
Kd (P. falciparum ProRS): 19 nM

C/C(=C\C(=O)OCCCCCCCCC(=O)O)C[C@@H]1OC[C@H](C[C@@H]2O[C@H]2[C@@H](C)[C@H](C)O)[C@@H](O)[C@H]1O [Mupirocin]
MIC (Staphylococcus aureus): 0.05 µg/mL (≈ 0.0999 µM)

Reference: PMC11189516, “Structure-guided conversion from an anaplastic lymphoma kinase inhibitor into Plasmodium lysyl-tRNA synthetase selective inhibitors” (Communications Biology, 2024)
